The text below walks through data of US20250064761A1, “SUBSTITUTED BENZAMIDES AND THEIR USE IN THERAPY” (PHARMACYL AB, priority 2018, published 2025).

Assay [1] deals with LPS-induced TNF-production in RAW264.7 murine macrophage cells. Briefly: Suppression of LPS-induced TNF-α production in macrophages (ELISA). To be noted: Mus musculus, RAW264.7, read-out: % Inhibition of TNF-production. In kind it is cell-based. The procedure:
The RAW264.7 macrophage line was maintained in DMEM supplemented with 5% FBS at 37° C. in a 5% CO2-humidified air environment. The RAW264.7 cells were seeded in 96-well plates at a density of 1×10^5/ml and a volume of 200 μl/well. The cells were incubated for 24 h in medium supplemented with 10% FBS and were then pre-incubated with or without the indicated concentrations of test substances for 2 h prior to the addition of LPS (1 μg/ml). The supernatants were subsequently harvested at various time points and production of the proinflammatory cytokine TNF-α in the culture medium was determined using a commercially available enzyme-linked immunosorbent assay (ELISA) kit according to the manufacturer's protocol.
Effects of some AABZs of the invention at 1 mM on LPS-induced TNF-production in RAW264.7 murine macrophage cells are shown in Table 2.

Assay [2] concerns DSS induced colitis in Balb/c mice. The assay can be described thus: Dextran sulfate sodium (DSS) induced inflammatory bowel disease in mice. In kind it is in vivo. Also on record: key to Blood in the Stool score LS means ± SE: 0 = normal, 2 = Hemoccult+, 4 = gross bleeding; key to Disease Activity Index LS means ± SE: sum of stool, blood and weight-loss scores (each 0-4), max 12. The procedure:
The experiment was performed using 6- to 8-week old female Balb/c mice after a one-week acclimatization period. The mice weighed 18-25 g, were purchased from Taconic (Denmark) and were maintained in a temperature and light-controlled facility with free access to standard rodent chow and water. Mice were randomized to the respective groups five days before start of treatment and were kept 5 to 6 animals […] per cage. […] The DSS intake was assessed daily. SASP (from Sigma-Aldrich, Sweden) was first dissolved in 0.2 M sodium hydroxide (NaOH) at a concentration higher than the required final concentration. Phosphate buffered saline (PBS) was added to the desired concentration and the pH was adjusted to 7.5-8.0 with NaOH or hydrochloric acid. SASP remained completely dissolved at this pH. Cpd A was dissolved in PBS to the desired concentration. All animal groups had free access to 5% DSS water solution for the entire test period. Treatments were administered from day 0 to day 5, either orally by gavage (SASP) or intraperitoneally (Cpd A), and in an administration volume of 5 ml/kg, twice daily with approximately an 8-hour interval. The control group (DSS only) received water (0.2 ml) orally twice daily.
The parameters recorded in the experiment were stool consistency (0, normal; 2, loose stools; 4, watery diarrhoea), occurrence of blood in the stool (0, normal; 2, Hemoccult+; 4, gross bleeding), and body weight loss (0, none; 1, 1-5%; 2, 5-10%; 3, 10-20%; 4, >20%). Disease activity index (DAI) was calculated by summarizing the scores of these three parameters. Also the colon length and the colonic content of myeloperoxidase (MPO) were recorded. Data was statistically evaluated with analysis of variance (ANOVA). Least-squares means (LS means), and standard error (SE) of LS means were calculated.

The target of the next assay is dopamine D2 receptor (Rattus norvegicus, UniProt P61169). In kind it is binding. Particulars: in vitro; 125I-spiperone.
dopamine D2 receptor, sequence (P61169 whole entry, looked up): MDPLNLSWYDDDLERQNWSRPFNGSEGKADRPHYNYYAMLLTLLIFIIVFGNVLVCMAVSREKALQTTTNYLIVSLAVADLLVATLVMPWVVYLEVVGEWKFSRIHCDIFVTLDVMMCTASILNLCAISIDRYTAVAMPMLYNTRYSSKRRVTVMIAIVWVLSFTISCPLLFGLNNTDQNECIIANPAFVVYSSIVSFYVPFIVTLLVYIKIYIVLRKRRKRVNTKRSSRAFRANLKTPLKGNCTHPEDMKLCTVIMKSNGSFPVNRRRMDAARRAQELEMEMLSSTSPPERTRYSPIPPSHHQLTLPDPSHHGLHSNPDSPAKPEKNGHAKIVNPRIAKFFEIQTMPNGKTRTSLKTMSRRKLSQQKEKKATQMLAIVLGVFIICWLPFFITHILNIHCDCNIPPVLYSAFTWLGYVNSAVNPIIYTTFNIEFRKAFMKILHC
Assay [3] concerns collagen-induced arthritis in DBA/1 mice. Briefly: Collagen-induced arthritis. The class given is in vivo. To be noted: 200 mg/kg/day in drinking water from day 14 to day 49. The method, then: The experiment was performed using 9-week old male DBA/1 mice after a two-week acclimatization period. The mice were purchased from B&M (Denmark), and were maintained in a temperature and light-controlled facility with free access to standard rodent chow and water. Following the acclimatization period, the mice (10 per treatment group) were anesthesized with Enflurane and immunized intradermally in the base of the tail with […] of a 1:1 emulsion consisting of Freund's Complete Adjuvant H37Ra (Difco) and 2 mg/mL bovine type II collagen (Elastin Products, Owensville, MO) in 0.1 M acetic acid. On day 14 post-immunization, the mice were given ad lib access to drinking water containing Cpd A, with treatment continuing daily until termination of the experiment (day 49). The Cpd A intake was monitored by weighing the drinking bottles at the water renewal twice per week. The control group received water ad lib.
The mice were monitored for clinical signs of arthritis three times a week from immunization to day 49. […] The four measurements were summed for each mouse, and group averages were calculated. Mice with a score >12 were sacrificed. In the scoring protocol, the last observation carried forward (LOCF) method was used.
Mean onset day was defined as the mean day of onset in mice being affected. […]
Statistical significance was determined using Mann-Whitney Rank Sum test. […]

The structures appear in SMILES notation. Where a name gives a salt, the structure may show the parent alone.

As to `CCN(CC)CCNC(=O)c1ccc(NC(=O)C(C)C)c(Cl)c1` [4-Isobutyrylamino-3-chloro-N-[2-(diethylamino)ethyl]benzamide hydrochloride], the inhibition (usually the change of the read-out against control, counted positive when it falls) at 1000 µM in assay [1] came out at 63%.

With `O=C(O)c1cc(/N=N/c2ccc(S(=O)(=O)Nc3ccccn3)cc2)ccc1O` [SASP, sulfasalazine, reference compound], the “frequency of diarrhoea (stool consistency score of 2 and 4)” value in assay [2] (day 3, 40 mg/kg/day bid po) was 8%. Besides, in assay [2] (day 5, 40 mg/kg/day bid po), the “Blood in the Stool Percent Reduction of Score vs control” value (“Blood in the Stool Percent Reduction” below) amounted to 42%, the “Blood in the Stool score LS means ± SE” value is on record as 1.4±0.2, the “Disease Activity Index LS means ± SE” value stood at 4.4 ± 0.4 and the “Disease Activity Index Percent Reduction of Score vs control” value (“Disease Activity Index Percent Reduction” below) worked out at 36%. Also, the “frequency of diarrhoea (stool consistency score of 2 and 4)” value in assay [2] (day 5, 40 mg/kg/day bid po) turned out to be 71%.

In the case of `CCC(=O)Nc1ccc(C(=O)NCCN(CC)CC)cc1Cl` [4-Propanoylamino-3-chloro-N-[2-(diethylamino)ethyl]benzamide hydrochloride], the inhibition at 1000 µM in assay [1] was 50%.

Take `CCN(CC)CCNC(=O)c1ccc(NC(C)=O)c(Cl)c1` [Cpd A, 4-Acetamido-3-chloro-N-[2-(diethylamino)ethyl]benzamide hydrochloride]: the inhibition at 1000 µM in assay [1] is 45%. In assay [2] (Cpd A 100 mg/kg/day bid ip vs SASP 40 mg/kg/day bid po, p<0.016), the “Disease Activity Index score reduction by Cpd A versus SASP treatment” value is given as 60%. Further, in assay [2] (day 5, 50 mg/kg/day bid ip), the “Blood in the Stool Percent Reduction” value came out at 9%, the “Blood in the Stool score LS means ± SE” value is 2.2 ± 0.3, the “Disease Activity Index LS means ± SE” value is 6.4 ± 0.5 and the “Disease Activity Index Percent Reduction” value came out at 7%. In addition, in assay [2] (day 5, 100 mg/kg/day bid ip), the “Blood in the Stool Percent Reduction” value came to 96%, the “Disease Activity Index LS means ± SE” value came out at 1.7 ± 1.0 and the “Disease Activity Index Percent Reduction” value was 75%. The “Blood in the Stool score LS means ± SE” value in assay [2] (day 5, 100 mg/kg/day bid ip, hydrochloride) turned out to be 0.1±0.5. Moreover, on dopamine D2 receptor, the “affinity for the dopamine D2 subtype receptor (in words)” value is given as “very low affinity”. Moreover, the “delay of mean onset of disease compared to the control group” value in assay [3] (p=0.02) was determined as 5.8 days. The “reduction of severity of arthritis score compared to the control group” value in assay [3] (p=0.05) was determined as 1.6.
